Test results from patent US20250228916A1, “A METHOD OF TREATING OR PREVENTING SEPSIS” (priority 2016, published 2025).

Columns and labels:
[1] = tested on: αVβ3 on human endothelial cells; test: Binding assay: L. lactis expressing ClfA binding to sheared human endothelial cells; format: cell-based; details: pretreatment of the human endothelial cells with cilengitide; FIG. 6B
Experimental: (§1) Sheared HAoECs were seeded into wells of a 96 well tissue culture plate at a density of 2.5×10^4 cells per well in a volume of 100 μl. Experiments were carried out either in the presence or absence of TNFα at 10 ng/ml. The HAoECs were incubated at 37° C. 5% CO2 for 4 hours to facilitate attachment and cell-cell contact on the plate. Following the 4 hr incubation the media was removed and 100 μl of human platelet poor plasma (PPP), 4 mg/ml fibrinogen or 1 mg/ml IgG was added to each well and incubated for 1 hr at 37° C. 5% CO2. The wells were washed with PBS and the wells were blocked with 100 μl of 1% […] for 1 hr at 37° C. Finally the wells were washed with 100 μl of TBS and 100 μl of SYBR green II stained bacteria was added per well at a MOI of 400. The cells were incubated for a further 1 hr at 37° C. 5% CO2 and then read on a fluorescent plate reader (1420 Victor V3, Perkin Elmer, Dublin, Ireland) at 485/535 nm. The bacteria were then removed gently by pipette and the plate washed with 100 μl TBS/well. The plate was then read again at 485/535 nm. Adhered bacteria were calculated as a percent remaining from the initial reading multiplied by the number of bacteria added.

purified receptor a Vb3 = purified receptor a Vb3 (Homo sapiens, UniProt P05106+P06756); test: L. lactis ClfA binding to purified receptor αVβ3; details: pretreating the purified receptor with cilengitide; FIG. 6C
[2] = tested on: S. aureus adhesion to murine endothelial cells; test: In vivo venous mesenteric perfusion model of bacterial adhesion; details: cilengitide administered intravenously; FIG. 7C, 7E
human endothelial cells [3] = test: Proliferation assay, S. aureus infected human endothelial cells; format: cell-based; details: 0.05 μM cilengitide, 24 hrs; FIG. 8H
Experimental: Sheared HAoECs were seeded into a six well plate at 150,000 cells per well in 1.6 ml media containing 10 ng/ml of TNFα. The cells were incubated for 4 hrs at 37° C. in a 5% CO2. […] The media was removed and the well washed with antibiotic free media. To each well 1.6 ml of antibiotic free media was added containing S. aureus Newman or S. aureus ΔClfA for a MOI of 400. The cells were incubated at 37° C. in for 24 hrs. Following incubation the media was removed from the cells and they were washed 4 times with warm PBS. The cells were detached from the 6 well plate by trypsinization counted on a haemocytometer.

human endothelial cells [4] = test: Apoptosis assay (Annexin V), S. aureus infected human endothelial cells; format: cell-based; details: cilengitide at 0.05 µM for 1 hr; FIG. 9B
Experimental: (§2) Sheared HAoECs in a 6 well plate were exposed to 1 ng of TNFα per 25,000 endothelial cells and were incubated for 4 hrs at 37° C. The TNFα containing media was removed and 1 ml of 4 mg/ml Fg in media at 37° C. for 1 hr. Media was removed and replaced with 1 ml of antibiotic free media containing S. aureus Newman WT or Newman ΔClfA to a MOI of 400 in a final volume per well of 2 ml. The cells were incubated for 24 hrs at 37° C. Following incubation the media was removed and the wells washed 3 times with warm PBS. Cells were detached by trypsinization and pelleted. The cell pellet was washed in ice cold (4° C.) PBS before being stained with a TACS™ Annexin V Apoptosis Kit. The cells were analysed on a flow cytometer (BD FACSCanto™ II Flow Cytometer). The experiment was repeated to test αVβ3 blocking by cilengitide at 0.05 µM for 1 hr between the TNFα exposure and the addition of 4 mg/ml fibrinogen for 1 hr. This experiment was repeated using E. coli and E. coli AompA instead of S. aureus Newman WT or Newman ΔClfA.

human endothelial cells [5] = test: Transwell permeability assay, S. aureus infected human endothelial cells; format: cell-based; details: cilengitide at 0.05 μM for 1 hr; FIG. 10
Experimental: (§3) Endothelial barrier permeability was assessed using a transwell apparatus with the slight modifications. Sheared HAoECs were trypsinized and seeded into hanging inserts, were placed in a 6 well plate. To the lower (abluminal) chamber of the plate 4 ml of cell media was added and 2 ml of media containing 200,000 cells/ml was added to the top (luminal) chamber. The wells plates were incubated at 37° C. in a 5% CO2 and humidified atmosphere overnight to form a confluent monolayer. Media in the abluminal chamber was changed to antibiotic free media while simultaneously the media in the luminal chamber was removed and washed with antibiotic free media. Cells were infected with S. aureus Newman WT and S. aureus ΔClfA in 2 ml of antibiotic free media to infect the cells at a MOI of 400 for 3 hrs at 37° C. FITC dextran (40 kDa) was added to the top chamber for a final concentration of 250 μg/ml in 2 ml. Media samples from the abluminal chamber were taken 24 hrs after infection measured on a plate reader at fluorescence Ex/Em 485/535 nm. The experiment was repeated to test αVβ3 blocking by cilengitide at 0.05 μM for 1 hr between the TNFα exposure and the addition of 4 mg/ml fibrinogen in place of plasma for 1 hr. This experiment was repeated using E. coli and E. coli AompA instead of S. aureus Newman WT or Newman ΔClfA.

human endothelial cells [6] = test: MTT cytotoxicity assay; format: cell-based; details: 0.05 μM cilengitide, FIG. 12
Experimental: Cell metabolic activity was measured using a MTT ((3-(4,5-dimethylthiazol-2-yl)-2,5-diphenyltetrazolium bromide) assay kit. Sheared HAoECs were seeded into a clear 96 well microtitre plate at a density of 2.5×10^4 cells/well in 100 μl in media containing 10 ng/ml TNFα. The cells were incubated for 4 hrs at 37° C. Media was removed from the wells after 4 hrs and replaced with 100 μl of fresh cell media, cell media containing a vehicle or cell media containing 0.05 μM cilengitide. The plate was incubated for a further one hour before the media was changed for 100 μl of fresh cell media with 10 μl of 12 mM MTT stock and the plate 10 incubated at 37° C. for 4 hrs. All but 25 μl of liquid was removed from each well and 10 μl of DMSO was added per well. The plate was incubated for 10 minutes at 37° C. before being read on a plate reader for absorbance at 570 nm.

[7] = tested on: αVβ3 integrin on endothelial cells; test: E. coli binding to endothelial cells, static assay; format: cell-based, human; details: cilengitide 0.05 μM; FIG. 14A
Experimental: as §1

[8] = tested on: αVβ3 integrin on sheared endothelial cells; test: E. coli binding to sheared endothelial cells under perfusion; format: cell-based, human; details: cilengitide 0.05 μM; E. coli perfused at 10 dyns for 5 minutes; FIG. 14B
endothelial cells [9] = test: Transwell permeability assay, E. coli infected endothelial cells; format: cell-based, human; details: preincubating the endothelial cells with cilengitide; FIG. 16
Experimental: as §3

endothelial cells [10] = test: VE-cadherin immunostaining of tight junction formation after E. coli infection; format: cell-based, human; details: pre-treating the endothelial cells with cilengitide; FIG. 17E
endothelial cells [11] = test: Apoptosis assay (Annexin V flow cytometry), E. coli infected endothelial cells
Experimental: as §2

[12] = tested on: vascular endothelial αVβ3 integrin receptor; test: Adhesion of gram positive and gram negative bacteria to vascular endothelial cells; format: cell-based, human; details: blocking the αVβ3 receptor
Experimental: as §1

[13] = target: vascular endothelial αVβ3 integrin on sheared human aortic endothelial cells (human)

purified receptor a Vb3, sequence (P06756 31-889 limits assumed): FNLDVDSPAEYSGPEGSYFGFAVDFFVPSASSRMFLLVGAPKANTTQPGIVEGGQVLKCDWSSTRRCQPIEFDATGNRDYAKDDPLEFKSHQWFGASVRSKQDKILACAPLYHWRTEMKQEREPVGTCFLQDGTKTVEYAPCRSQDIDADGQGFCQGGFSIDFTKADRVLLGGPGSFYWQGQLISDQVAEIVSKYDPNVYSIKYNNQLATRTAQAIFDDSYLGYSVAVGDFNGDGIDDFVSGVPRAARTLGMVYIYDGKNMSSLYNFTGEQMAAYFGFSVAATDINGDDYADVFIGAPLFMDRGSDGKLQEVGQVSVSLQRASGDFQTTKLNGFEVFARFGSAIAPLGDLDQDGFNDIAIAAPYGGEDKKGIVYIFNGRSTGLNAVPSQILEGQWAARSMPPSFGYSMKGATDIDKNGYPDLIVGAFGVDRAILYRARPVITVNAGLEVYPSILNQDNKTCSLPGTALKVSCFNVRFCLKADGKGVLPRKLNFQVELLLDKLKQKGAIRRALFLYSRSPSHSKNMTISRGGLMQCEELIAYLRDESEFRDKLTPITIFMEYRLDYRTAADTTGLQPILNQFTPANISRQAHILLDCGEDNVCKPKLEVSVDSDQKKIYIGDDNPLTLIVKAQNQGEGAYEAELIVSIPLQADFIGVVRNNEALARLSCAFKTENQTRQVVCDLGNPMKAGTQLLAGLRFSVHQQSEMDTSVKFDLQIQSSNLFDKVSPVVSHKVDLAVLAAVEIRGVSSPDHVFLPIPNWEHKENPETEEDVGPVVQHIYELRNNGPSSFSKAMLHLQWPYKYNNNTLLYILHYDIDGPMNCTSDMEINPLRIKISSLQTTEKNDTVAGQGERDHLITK
purified receptor a Vb3, sequence (P06756 891-1048 partner limits assumed): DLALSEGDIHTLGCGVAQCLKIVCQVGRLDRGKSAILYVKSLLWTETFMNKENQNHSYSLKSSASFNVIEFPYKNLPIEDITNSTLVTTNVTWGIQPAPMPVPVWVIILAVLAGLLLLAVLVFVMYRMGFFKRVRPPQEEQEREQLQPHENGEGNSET
purified receptor a Vb3, sequence (P05106 27-788): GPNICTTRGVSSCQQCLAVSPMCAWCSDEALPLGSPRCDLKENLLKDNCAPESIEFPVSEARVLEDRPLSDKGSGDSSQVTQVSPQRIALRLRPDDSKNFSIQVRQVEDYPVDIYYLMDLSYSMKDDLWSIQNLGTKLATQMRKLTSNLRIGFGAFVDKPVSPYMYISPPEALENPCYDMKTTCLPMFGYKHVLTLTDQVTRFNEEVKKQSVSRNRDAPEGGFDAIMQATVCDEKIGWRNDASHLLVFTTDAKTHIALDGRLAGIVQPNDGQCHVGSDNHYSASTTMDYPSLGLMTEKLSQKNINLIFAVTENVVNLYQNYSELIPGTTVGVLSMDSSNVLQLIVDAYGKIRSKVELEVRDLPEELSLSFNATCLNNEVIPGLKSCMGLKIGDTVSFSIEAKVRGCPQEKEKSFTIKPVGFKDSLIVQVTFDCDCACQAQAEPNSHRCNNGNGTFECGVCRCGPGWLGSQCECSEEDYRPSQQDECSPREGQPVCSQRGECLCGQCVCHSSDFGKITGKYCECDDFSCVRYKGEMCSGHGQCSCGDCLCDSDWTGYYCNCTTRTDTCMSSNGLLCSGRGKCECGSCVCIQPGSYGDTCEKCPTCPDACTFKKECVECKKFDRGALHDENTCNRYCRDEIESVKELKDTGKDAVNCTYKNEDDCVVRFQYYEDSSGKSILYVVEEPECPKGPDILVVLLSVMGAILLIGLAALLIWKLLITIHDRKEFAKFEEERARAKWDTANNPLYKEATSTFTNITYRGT

Compound	binding of L. lactis expressing ClfA to human endothelial cells [1]	L. lactis ClfA binding to purified receptor αVβ3 (purified receptor a Vb3)	S. aureus binding to murine endothelial cells [2]	human endothelial cell proliferation after S. aureus infection (human endothelial cells [3])	S. aureus induced apoptosis of human endothelial cells (human endothelial cells [4])	permeability of the human endothelial barrier following S. aureus infection (human endothelial cells [5])	toxicity in human endothelial cells (human endothelial cells [6])	E. coli binding to endothelial cells, static assay [7]	E. coli binding to sheared endothelial cells, perfused [8]	E. coli induced permeability of endothelial cells (endothelial cells [9])	VE-cadherin tight junction formation following E. coli infection (endothelial cells [10])	viability of endothelial cells (endothelial cells [11]; cilengitide alone, no infection)	E. coli induced apoptosis of endothelial cells (endothelial cells [11]; preincubation of endothelial cells with cilengitide, Annexin V, FIG. 17F)	adhesion of both gram positive and gram negative bacteria to vascular endothelial cells [12]	endothelial cell permeability (% increase in permeability) [13]
CC(C)[C@H]1C(=O)N[C@@H](CCCN=C(N)N)C(=O)NCC(=O)N[C@@H](CC(=O)O)C(=O)N[C@H](Cc2ccccc2)C(=O)N1C [cilengitide, cyclo(-RGDf(NMe)V-)]	significantly reduced	significantly inhibited	failed to significantly bind	significantly recovered	significantly reduced	significantly reduced	does not cause toxicity	significantly inhibited	significantly inhibited	significantly reduces permeability	recovery of tight junction formation	failed to affect	significant reduction	dose-dependent reduction in adhesion	–
Escherichia coli outer membrane protein A	–	–	–	–	–	–	–	–	–	–	–	–	–	–	30
